The target of one experiment is Acrosin (Homo sapiens, UniProt P10323). As to the kind of experiment: Inhibition of acrosin in human liquefied human semen using BAPNA incubated at 37.8 degC for 3 hrs by spectrophotometry.
The nature of experiment [1]: Inhibition of pig trypsin. More on the design: species or system Sus scrofa.

SMILES strings stand for the structures.

Chain of Acrosin (P10323 20-42 limits assumed): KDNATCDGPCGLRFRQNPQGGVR
Chain of Acrosin (P10323 43-343 limits assumed): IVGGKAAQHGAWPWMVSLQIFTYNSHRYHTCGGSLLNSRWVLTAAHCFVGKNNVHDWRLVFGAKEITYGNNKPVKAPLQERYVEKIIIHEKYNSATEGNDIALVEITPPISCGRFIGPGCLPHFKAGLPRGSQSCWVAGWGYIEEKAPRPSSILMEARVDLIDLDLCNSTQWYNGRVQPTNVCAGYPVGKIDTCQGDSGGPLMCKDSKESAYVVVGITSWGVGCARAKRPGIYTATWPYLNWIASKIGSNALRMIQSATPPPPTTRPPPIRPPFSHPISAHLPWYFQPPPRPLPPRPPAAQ

As usually defined, the IC50 is the concentration that inhibits the measured activity by half. For the molecule `N=C(N)Nc1ccc(-c2cc(C(=O)O)n[nH]2)cc1`, at Acrosin, the IC50 was more than 100 µM.
Same read-out and setting: under `Cc1cccc(NC(=O)c2cc(-c3ccc(NC(=N)N)cc3)[nH]n2)c1C` stands 8.45 µM; under `Cc1ccc(C)c(NC(=O)c2cc(-c3ccc(NC(=N)N)cc3)[nH]n2)c1`, 7.47 µM; under `N=C(N)Nc1ccc(-c2cc(C(=O)Nc3ccc(Br)cc3)n[nH]2)cc1`, 16.1 µM.
For the molecule `N=C(N)Nc1ccc(-c2cc(C(=O)Nc3ccc(F)cc3)n[nH]2)cc1`, the IC50 on Acrosin was 24.5 µM.
The molecule `N=C(N)Nc1ccc(-c2cc(C(=O)Nc3ccc(O)cc3)n[nH]2)cc1` returned an IC50 at Acrosin of 28.3 µM.
The same measure, in the same setting: under `N=C(N)Nc1ccc(-c2cc(C(=O)Nc3ccc(Nc4ccccc4)cc3)n[nH]2)cc1` stands 26.8 µM; under `COc1ccc(NC(=O)c2cc(-c3ccc(NC(=N)N)cc3)[nH]n2)c(OC)c1`, 2.38 µM.
The same measure, in the same setting: the figure for `Cc1cc(C)cc(NC(=O)c2cc(-c3ccc(NC(=N)N)cc3)[nH]n2)c1` is 9.46 µM.
Same read-out and setting: under `CCOC(=O)c1ccccc1NC(=O)c1cc(-c2ccc(NC(=N)N)cc2)[nH]n1` stands 5.73 µM.
As for `CCOC(=O)c1cc(-c2ccc(NC(=N)N)cc2)[nH]n1`, the IC50 at Acrosin was more than 100 µM.
Molecule `N=C(N)Nc1ccc(-c2cc(C(=O)Nc3ccc4c(c3)OCCO4)n[nH]2)cc1` had an IC50 against Acrosin of 25.4 µM.
As to `COc1ccc(NC(=O)c2cc(-c3ccc(NC(=N)N)cc3)[nH]n2)cc1OC`, the IC50 at Acrosin stood at 3.44 µM.
Same read-out and setting: under `CC(C)(C)c1ccc(NC(=O)c2cc(-c3ccc(NC(=N)N)cc3)[nH]n2)cc1` stands 5.87 µM; under `COC(=O)c1ccc(OC(=O)c2ccc(NC(=N)N)cc2)cc1`, 2.41 µM.
The same measure, in the same setting: under `N=C(N)Nc1ccc(-c2cc(C(=O)Nc3ccccc3)n[nH]2)cc1` stands 15.1 µM.
The same measure, in the same setting: the figure for `N=C(N)Nc1ccc(-c2cc(C(=O)Nc3cccc(Br)c3)n[nH]2)cc1` is 13.1 µM; for `N=C(N)Nc1ccc(-c2cc(C(=O)Nc3ccc(Cl)cc3)n[nH]2)cc1` it is 23.9 µM.
For `Cc1ccccc1NC(=O)c1cc(-c2ccc(NC(=N)N)cc2)[nH]n1`, the IC50 on Acrosin is 10.9 µM.
On the same count and under the same terms, the figure for `N=C(N)Nc1ccc(-c2cc(C(=O)Nc3cccc4ccccc34)n[nH]2)cc1` is 24.4 µM; for `Cc1cccc(C)c1NC(=O)c1cc(-c2ccc(NC(=N)N)cc2)[nH]n1` it is 4.32 µM.
`CCN(CC)c1ccc(NC(=O)c2cc(-c3ccc(NC(=N)N)cc3)[nH]n2)cc1`: inhibition at Acrosin was half-maximal at 25.9 µM (IC50).
At Acrosin, `Cc1cccc(NC(=O)c2cc(-c3ccc(NC(=N)N)cc3)[nH]n2)c1` displayed an IC50 of 9.43 µM.
The same measure, in the same setting: the figure for `COc1cccc(NC(=O)c2cc(-c3ccc(NC(=N)N)cc3)[nH]n2)c1` is 2.42 µM; for `N=C(N)Nc1ccc(-c2cc(C(=O)Nc3cccc(Cl)c3)n[nH]2)cc1` it is 17.7 µM.
The same measure, in the same setting: the figure for `N=C(N)Nc1ccc(-c2cc(C(=O)Nc3ccc(C(F)(F)F)cc3)n[nH]2)cc1` is 16.6 µM.
With `COc1ccc(OC)c(NC(=O)c2cc(-c3ccc(NC(=N)N)cc3)[nH]n2)c1`, the values for the IC50 (against Acrosin; in experiment [1]) were 1.26 µM and 2100 µM, respectively.
`COc1ccc(NC(=O)c2cc(-c3ccc(NC(=N)N)cc3)[nH]n2)cc1` yielded an IC50 against Acrosin of 11.3 µM.
The same measure, in the same setting: under `N=C(N)Nc1ccc(-c2cc(C(=O)Nc3cccc(C(F)(F)F)c3)n[nH]2)cc1` stands 23.7 µM.

The values above are taken from ChEMBL document CHEMBL3596115, “Discovery of novel guanidinophenylpyrazole human acrosin inhibitors by molecular hybridization” (Medchemcomm, 2014).
